Data taken from patent US12090142B2, “Combination therapy for the treatment of cancer” (The Board of Regents of the University of Texas System, priority 2018, dated 2024).

Key:
[1] = tested on: CT-26 cells; test: CT-26 syngeneic Balb/c mouse tumor model, tumor growth; assay type: in vivo; conditions: CT-26 syngeneic mouse model
Protocol: CT-26 cells (0.5×10^6) were injected subcutaneously into the flanks of Balb/c mice (n=4-7) on day 0. When tumor volume reaches approximately 45 mm^3, the mice were injected (i.p.) anti-PD-1, 200 μg/mouse, twice per week. Aldose reductase inhibitor (ARI) (25 mg/kg/day) were given in drinking water or by gavage. CT26 tumor were left untreated (Con) or treated with fidarestat (Fid), anti-PD-1 (PD1) or combination of both (Combo). Con mice were also treated with isotype matched control antibodies (PD-1 iso). Tumor growth was measured twice per week and animals were euthanized when the tumor volume reaches 2000 mm^3 in the control mice (˜30 days). Tumor volume (A) and tumor weight (B) were measured. Data Mean S.E.M. P<0.05; *P<0.05; **P<0.01 by one-way ANOVA followed by Dunnet and Tukey's multiple comparison test.

[2] = tested on: MC38 cells; test: MC38 subcutaneous tumor model in C57BL/6 WT and ARKO mice, tumor growth; assay type: in vivo, mouse; conditions: both the CRC models (CT26 and MC38)
Protocol: FIG. 7A-7D: AR deficiency/inhibition increases the efficacy of anti-PD1, decreases immune-related toxicities induced by anti-PD1 in CRC model, MC38. MC38 cells were inoculated subcutaneous in C57BL/6 WT and aldose reductase knockout (ARKO) mice. When tumors became palpable (approximately 40-43 mm^3), mice were randomized and treated with anti-PD-1 (twice a week), AR inhibitor (25 mg/kg/day in drinking water). MC38 tumor was left untreated in Con WT and ARKO or treated with Fid in WT, anti-PD-1 (PD1) in WT and ARKO or combination of both (Combo) in WT mice. Con WT and ARKO mice were also treated with isotype controls (PD-1 iso). […] Tumor growth was measured twice a week and animals were euthanized when the tumor volume reaches 2000 mm^3 in the control mice (approximately 27 days). […] Isolated TILs from tumors were analyzed by flow cytometry for intracellular staining of IFN-γ and granzyme B to analyze the effector function of CD8^+ T and NK cells in TILs. […]
MC38 cells were inoculated subcutaneous in C57BL/6 WT and aldose reductase knockout (ARKO) mice. […] Tumor growth was measured twice a week and animals were euthanized when the tumor volume reaches 2000 mm^3 in the control mice (approximately 27 days). […] Isolated TILs from tumors were analyzed by flow cytometry for intracellular staining of IFN-γ and granzyme B to analyze the effector function of CD8^+ T and NK cells in TILs. […]

[3] = tested on: colorectal cancer cells; test: Sensitivity of colorectal cancer cells to doxorubicin; assay type: cell-based; conditions: earlier studies of the inventors
Text: The inventors have also shown that AR inhibition prevents colorectal cancer cells growth in tissue culture, nude mouse xenografts, and chemically-induced animal models of colorectal cancer. Based on these studies, the inventors investigated whether an AR inhibitor such as fidarestat could be used as combination therapy along with immune checkpoint inhibitor such as an anti-PD1 antibody resulting in an increase in the immunotherapeutic efficacy of anti-PD1 and prevent CRC growth.

[4] = Cardiotoxicity associated with anthracycline drugs; conditions: earlier studies of the inventors
[5] = Phase-III clinical trial, diabetic nephropathy; cited from earlier work

NC(=O)[C@@H]1C[C@]2(NC(=O)NC2=O)c2cc(F)ccc2O1 [fidarestat, (2S,4S)-6-fluoro-2′,5′-dioxospiro(chroman-4,4′-imidazolidine)-2-carboxamide]
sensitivity of anti-PD1 immunotherapy [1]: significantly increases the sensitivity of anti-PD1 immunotherapy
efficacy of anti-PD1 and tumor growth [2]: increases the efficacy of anti-PD1 and decreases the tumor growth
sensitivity of colorectal cancer cells to doxorubicin [3]: increased the sensitivity
cardiotoxicity associated with anthracycline drugs [4]: prevented cardiotoxicity
side effects [5]: no major side effects
